Each structure is given as a SMILES string. The source made the active and inactive calls. No cut-off for these calls is given here.

Consider one compound from ChEMBL document CHEMBL5338739, “Discovery of Dual Lysine Methyltransferase G9a and EZH2 Inhibitors with In Vivo Efficacy against Malignant Rhabdoid Tumor” (J Med Chem, 2023).

Series [1] relates to RD. As to the kind of experiment: Downregulation of H3K4me1 expression in human RD cells at 5 uM incubated for 6 days by immunoblotting analysis. The series is classed as functional, cell-based. The settings on record: time 6.0 day.
In series [2] the test system is RD. As to the kind of experiment: Downregulation of H3K27me3 expression in human RD cells at 5 uM incubated for 6 days by Western blotting analysis. The settings on record: time 6.0 day. The series is classed as functional, cell-based.
A short description of series [3]: Apparent volume of distribution in Sprague-Dawley rat at 30 mg/kg, po administered for 24 hrs by HPLC analysis. The series is classed as ADME, organism-based. The settings on record: in vivo.
The subject of series [4] is SW982. As to the kind of experiment: Antiproliferative activity against human SW982 cells assessed as reduction in clone formation rate at 5 uM for 1 to 2 weeks with fresh medium replacement for every 2 to 3 days by crystal violet staining based microscopic analysis. The settings on record: time 1-2 weeks. The series is classed as functional, cell-based.
Series [5] deals with RD. As to the kind of experiment: Antiproliferative activity against human RD cells assessed as reduction in clone formation rate at 5 uM for 1 to 2 weeks with fresh medium replacement for every 2 to 3 days by crystal violet staining based microscopic analysis. The settings on record: time 1-2 weeks. The series is classed as functional, cell-based.
In series [6] the test system is RD. As to the kind of experiment: Antitumor activity against EZH2 and G9a knockdown human RD cells xenografted in BALB/c nude mouse assessed as tumor growth inhibition at 20 mg/kg, ip administered for 15 days. The class given is functional, organism-based. Particulars: time 15.0 day.
Series [7] relates to SW982. The series is described as follows: Cytotoxicity against human SW982 cells assessed as reduction in cell viability incubated for 72 hrs by MTT assay. The class given is functional.
For series [8], the system named is RD. As to the kind of experiment: Cytotoxicity against human RD cells assessed as reduction in cell viability incubated for 72 hrs by MTT assay. The class given is functional.
Series [9] addresses Histone-lysine N-methyltransferase, H3 lysine-79 specific (Homo sapiens) (UniProt Q8TEK3). The series is described as follows: Binding affinity to DOT1L in human RD cells assessed as increase in protein thermal stability at 5 uM incubated for 4 hrs by CETSA based Western blot analysis. The series is classed as cell-based.
A short description of series [10]: Tmax in Sprague-Dawley rat at 30 mg/kg, po administered for 24 hrs by HPLC analysis. The class given is ADME, organism-based. Particulars: in vivo.
Series [11] in a line: Toxicity in BALB/c nude mouse xenografted with human RD cells assessed as effect on spleen viscera index at 10 to 20 mg/kg, ip administered for 5 consecutive days followed by 2 rest days for 3 weeks. The settings on record: in vivo, 504 h, dose 10-20 mg/kg. The class given is organism-based.
Series [12] concerns the target Histone-lysine N-methyltransferase SETDB1 (Homo sapiens) (UniProt Q15047). As to the kind of experiment: Inhibition of SETDB1 (unknown origin) using SAM as substrate at 10 uM by time-resolved fluorescence assay relative to control.
A short description of series [13]: Toxicity in BALB/c nude mouse xenografted with human RD cells assessed as effect on lung viscera index at 10 to 20 mg/kg, ip administered for 5 consecutive days followed by 2 rest days for 3 weeks. The series is classed as organism-based. Particulars: in vivo, 504 h, dose 10-20 mg/kg.
A short description of series [14]: Clearance in Sprague-Dawley rat at 30 mg/kg, po administered for 24 hrs by HPLC analysis. The class given is ADME, organism-based. Particulars: in vivo.
The target in series [15] is Histone-lysine N-methyltransferase EZH2 (Homo sapiens, UniProt Q15910). As to the kind of experiment: Inhibition of human EZH2 using SAM as substrate at 10 uM by time-resolved fluorescence assay relative to control.
Sequence of Histone-lysine N-methyltransferase EZH2 (Q15910 whole entry, looked up): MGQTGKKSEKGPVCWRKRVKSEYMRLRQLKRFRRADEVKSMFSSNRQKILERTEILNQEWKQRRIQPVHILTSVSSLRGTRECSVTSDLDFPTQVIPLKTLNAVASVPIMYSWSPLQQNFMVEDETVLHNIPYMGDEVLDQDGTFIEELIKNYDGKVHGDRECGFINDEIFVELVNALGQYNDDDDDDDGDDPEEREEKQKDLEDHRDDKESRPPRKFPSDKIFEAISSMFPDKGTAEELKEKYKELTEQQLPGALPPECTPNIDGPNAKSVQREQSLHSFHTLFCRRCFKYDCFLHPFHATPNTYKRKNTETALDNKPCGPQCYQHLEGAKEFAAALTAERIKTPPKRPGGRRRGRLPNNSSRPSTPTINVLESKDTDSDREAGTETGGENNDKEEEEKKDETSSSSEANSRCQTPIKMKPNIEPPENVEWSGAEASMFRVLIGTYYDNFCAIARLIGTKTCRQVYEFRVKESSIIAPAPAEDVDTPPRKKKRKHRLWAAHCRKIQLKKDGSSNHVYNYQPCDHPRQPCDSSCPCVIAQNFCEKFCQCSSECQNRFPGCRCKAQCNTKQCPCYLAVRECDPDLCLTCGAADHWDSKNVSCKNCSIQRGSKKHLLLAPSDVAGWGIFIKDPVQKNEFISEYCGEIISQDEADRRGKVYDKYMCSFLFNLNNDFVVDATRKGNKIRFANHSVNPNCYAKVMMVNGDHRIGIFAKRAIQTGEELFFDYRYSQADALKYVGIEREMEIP
The nature of series [16]: Toxicity in BALB/c nude mouse xenografted with human RD cells assessed as effect on liver viscera index at 10 to 20 mg/kg, ip administered for 5 consecutive days followed by 2 rest days for 3 weeks. The class given is organism-based. Particulars: in vivo, 504 h, dose 10-20 mg/kg.
Series [17] can be described thus: Toxicity in BALB/c nude mouse xenografted with human RD cells assessed as effect on kidney viscera index at 10 to 20 mg/kg, ip administered for 5 consecutive days followed by 2 rest days for 3 weeks. The series is classed as organism-based. Particulars: in vivo, 504 h, dose 10-20 mg/kg.
Series [18] has as its system RD. As to the kind of experiment: Downregulation of H3K36me2 expression in human RD cells at 5 uM incubated for 6 days by immunoblotting analysis. The series is classed as functional, cell-based. Particulars: time 6.0 day.
A short description of series [19]: Toxicity in BALB/c nude mouse xenografted with human RD cells assessed as effect on heart viscera index at 10 to 20 mg/kg, ip administered for 5 consecutive days followed by 2 rest days for 3 weeks. The series is classed as organism-based. The settings on record: in vivo, 504 h, dose 10-20 mg/kg.
Series [20] in a line: AUC (0 to infinity) in Sprague-Dawley rat at 30 mg/kg, po administered for 24 hrs by HPLC analysis. The class given is ADME, organism-based. More on the design: time 24 hrs, dose 30 mg/kg, route po. Particulars: in vivo.
Series [21] has as its target T1, Histone-lysine N-methyltransferase EHMT2 (Homo sapiens) (UniProt Q96KQ7).
T1 sequence (whole entry): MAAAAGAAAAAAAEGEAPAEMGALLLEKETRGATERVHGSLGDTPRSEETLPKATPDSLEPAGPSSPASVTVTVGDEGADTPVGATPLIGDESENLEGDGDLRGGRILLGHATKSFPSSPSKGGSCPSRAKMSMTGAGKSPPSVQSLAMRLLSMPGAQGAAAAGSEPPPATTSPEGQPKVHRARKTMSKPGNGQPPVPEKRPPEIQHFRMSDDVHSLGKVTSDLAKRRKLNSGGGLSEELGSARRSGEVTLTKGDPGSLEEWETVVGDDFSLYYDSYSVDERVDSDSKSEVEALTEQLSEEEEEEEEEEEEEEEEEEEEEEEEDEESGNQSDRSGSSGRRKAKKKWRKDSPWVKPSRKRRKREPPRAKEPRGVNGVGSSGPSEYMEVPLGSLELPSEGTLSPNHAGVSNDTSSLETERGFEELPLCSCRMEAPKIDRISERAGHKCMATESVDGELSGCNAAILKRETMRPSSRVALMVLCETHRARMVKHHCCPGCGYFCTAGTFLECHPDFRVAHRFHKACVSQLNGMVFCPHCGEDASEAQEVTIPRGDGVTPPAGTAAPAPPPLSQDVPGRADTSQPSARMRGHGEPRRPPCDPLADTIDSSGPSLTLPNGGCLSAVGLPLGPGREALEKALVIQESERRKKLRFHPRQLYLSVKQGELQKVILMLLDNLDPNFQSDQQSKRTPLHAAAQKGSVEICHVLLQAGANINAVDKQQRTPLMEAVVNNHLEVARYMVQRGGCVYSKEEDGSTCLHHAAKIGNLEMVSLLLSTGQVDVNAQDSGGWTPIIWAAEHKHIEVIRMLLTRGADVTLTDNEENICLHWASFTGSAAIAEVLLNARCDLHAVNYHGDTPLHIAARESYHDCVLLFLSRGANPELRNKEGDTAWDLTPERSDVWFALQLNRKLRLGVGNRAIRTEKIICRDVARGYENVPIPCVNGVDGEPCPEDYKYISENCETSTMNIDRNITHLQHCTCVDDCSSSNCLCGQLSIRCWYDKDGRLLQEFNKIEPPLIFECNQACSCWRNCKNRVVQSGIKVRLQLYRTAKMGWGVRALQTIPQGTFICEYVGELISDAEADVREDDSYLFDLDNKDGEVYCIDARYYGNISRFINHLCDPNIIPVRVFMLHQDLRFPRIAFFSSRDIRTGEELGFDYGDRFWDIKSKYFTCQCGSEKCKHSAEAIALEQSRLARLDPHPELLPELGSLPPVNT
As to the kind of experiment: Binding affinity to recombinant EHMT2 G9a in human RD cells assessed as decrease in […] incubated for 1 hr by DARTS analysis. The class given is cell-based. Particulars: dose 5-20 µM.

Series [22] can be described thus: Clearance in Sprague-Dawley rat at 10 mg/kg, iv administered for 12 hrs by HPLC analysis. The series is classed as ADME, organism-based. The settings on record: in vivo.
Series [23] is described as follows: Cytotoxicity against human L02 cells assessed as reduction in cell viability incubated for 72 hrs by MTT assay. The series is classed as toxicity, cell-based.
The target in series [24] is Histone-lysine N-methyltransferase, H3 lysine-79 specific (Homo sapiens) (UniProt Q8TEK3). The series is described as follows: Inhibition of […] (unknown origin) using SAM as substrate at 10 uM by time-resolved fluorescence assay relative to control.
Sequence of Histone-lysine N-methyltransferase, H3 lysine-79 specific (Homo sapiens) (Q8TEK3 whole entry, looked up): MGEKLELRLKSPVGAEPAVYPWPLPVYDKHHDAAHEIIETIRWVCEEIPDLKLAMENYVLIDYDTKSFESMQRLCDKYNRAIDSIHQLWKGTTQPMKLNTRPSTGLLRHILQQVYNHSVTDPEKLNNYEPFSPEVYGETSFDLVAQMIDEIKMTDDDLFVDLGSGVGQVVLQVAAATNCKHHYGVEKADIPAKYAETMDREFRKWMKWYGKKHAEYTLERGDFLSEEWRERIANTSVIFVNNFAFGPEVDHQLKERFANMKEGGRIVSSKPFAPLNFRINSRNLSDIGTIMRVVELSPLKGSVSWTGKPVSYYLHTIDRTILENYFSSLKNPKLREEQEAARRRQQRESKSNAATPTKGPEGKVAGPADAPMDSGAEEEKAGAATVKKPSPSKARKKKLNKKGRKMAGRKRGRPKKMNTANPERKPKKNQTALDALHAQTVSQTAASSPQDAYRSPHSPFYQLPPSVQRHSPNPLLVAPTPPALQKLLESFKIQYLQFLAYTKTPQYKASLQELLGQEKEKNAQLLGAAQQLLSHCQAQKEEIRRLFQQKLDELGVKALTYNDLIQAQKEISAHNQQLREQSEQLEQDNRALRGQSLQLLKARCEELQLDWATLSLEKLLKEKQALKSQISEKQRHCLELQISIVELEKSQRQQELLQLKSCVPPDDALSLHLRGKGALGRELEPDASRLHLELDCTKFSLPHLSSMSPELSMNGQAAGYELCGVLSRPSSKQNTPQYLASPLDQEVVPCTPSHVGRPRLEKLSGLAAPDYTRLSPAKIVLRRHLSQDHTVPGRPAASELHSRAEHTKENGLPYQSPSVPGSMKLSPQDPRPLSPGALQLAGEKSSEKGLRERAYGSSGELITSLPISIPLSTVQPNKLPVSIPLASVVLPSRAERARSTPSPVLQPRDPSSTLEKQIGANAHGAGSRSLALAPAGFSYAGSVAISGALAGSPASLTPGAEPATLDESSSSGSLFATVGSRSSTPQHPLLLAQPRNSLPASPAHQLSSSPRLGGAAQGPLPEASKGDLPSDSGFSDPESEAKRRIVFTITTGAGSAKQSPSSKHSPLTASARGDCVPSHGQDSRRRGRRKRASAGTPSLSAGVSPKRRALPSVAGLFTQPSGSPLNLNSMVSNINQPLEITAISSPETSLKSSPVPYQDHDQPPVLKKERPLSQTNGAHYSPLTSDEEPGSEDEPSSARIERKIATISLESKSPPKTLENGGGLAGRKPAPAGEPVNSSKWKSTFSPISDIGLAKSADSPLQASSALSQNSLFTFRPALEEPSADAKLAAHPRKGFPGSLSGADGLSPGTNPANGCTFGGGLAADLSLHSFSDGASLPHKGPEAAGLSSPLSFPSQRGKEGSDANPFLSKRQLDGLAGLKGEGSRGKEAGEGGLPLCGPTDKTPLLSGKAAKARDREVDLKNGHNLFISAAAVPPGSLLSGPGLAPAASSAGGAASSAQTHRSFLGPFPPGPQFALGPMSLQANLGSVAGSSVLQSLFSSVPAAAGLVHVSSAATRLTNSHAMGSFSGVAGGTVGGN

With `COc1cc2c(NCc3c(C)cc(C)[nH]c3=O)nc(N3CCC(F)(F)CC3)nc2cc1OCCCN1CCCC1`, the result in [1], in series [9] and in series [18] was inactive. The outcome in series [2], in series [4] and in series [5] was Active. In addition, the Vc in series [3] stood at 17.518 L/kg. Moreover, in [6], the inhibition result was “inactive”. Moreover, the CC50 in series [7] stood at 19.9 µM; in [8], 19.6 µM. Further, in [10], the Tmax came out at 41.4 min. Also, the Activity entry in series [11] is “Non-Toxic”; in [13] it was “Non-Toxic”; in [16], “Non-Toxic”; in series [17] it was “Non-Toxic”; in series [19] it was “Non-Toxic”; in [21], “Dose-Dependent Effect”. Also, the inhibition in [12] is 7.79%; in [15] it was 98.3%; in [24], -5.87%. For the same compound, in series [14], the CL/F is 59.7 mL/min/kg. The compound further gave an AUC(0-inf) in series [20] of 11400 ng·h/mL. The CL in series [22] stood at 15.14 mL/min/kg. In addition, the CC50 at 72 h in [23] is more than 100 µM.
